Active and inactive are the calls of the source. No cut-off for these calls is given here.
Columns and labels:
[1] = target: Coagulation factor X (Homo sapiens) (UniProt P00742); experiment: Inhibition of calcium-dependent membrane binding activity of factor 10a
Coagulation factor V [2] = target: T1, Coagulation factor V (Homo sapiens, UniProt P12259); experiment: Inhibition of factor 5a-mediated prothrombin activation in human plasma at 100 uM by prothrombinase assay
Coagulation factor V [3] = target: T1, Coagulation factor V; experiment: Inhibition of factor 5a-mediated prothrombin activation in human plasma by prothrombinase assay; format: cell-free
[4] = target: Coagulation factor X (Homo sapiens) (UniProt P00742); experiment: Inhibition of factor 10a in human plasma; format: cell-free
Coagulation factor V [5] = target: T1, Coagulation factor V; experiment: Inhibition of human factor 5a light chain binding to immobilized phospholipid by surface plasmon resonance assay
Coagulation factor V [6] = target: T1, Coagulation factor V; experiment: Inhibition of factor 5a-mediated prothrombin activation in human plasma at 50 uM in presence of 40 mg/ml albumin; format: cell-free; parameters: scale not given: the % may be the effect or the level left
Coagulation factor V [7] = target: T1, Coagulation factor V; experiment: Inhibition of human recombinant factor 5a C2 domain binding to immobilized phospholipid by surface plasmon resonance assay
[8] = target: Prothrombin (Homo sapiens) (UniProt P00734); experiment: Inhibition of calcium-dependent membrane binding activity of prothrombin
Coagulation factor VIII = Coagulation factor VIII (Homo sapiens, UniProt P00451); experiment: Inhibition of human factor 8 binding to immobilized phospholipid by surface plasmon resonance assay
Coagulation factor VIII, sequence (P00451 20-759 limits assumed): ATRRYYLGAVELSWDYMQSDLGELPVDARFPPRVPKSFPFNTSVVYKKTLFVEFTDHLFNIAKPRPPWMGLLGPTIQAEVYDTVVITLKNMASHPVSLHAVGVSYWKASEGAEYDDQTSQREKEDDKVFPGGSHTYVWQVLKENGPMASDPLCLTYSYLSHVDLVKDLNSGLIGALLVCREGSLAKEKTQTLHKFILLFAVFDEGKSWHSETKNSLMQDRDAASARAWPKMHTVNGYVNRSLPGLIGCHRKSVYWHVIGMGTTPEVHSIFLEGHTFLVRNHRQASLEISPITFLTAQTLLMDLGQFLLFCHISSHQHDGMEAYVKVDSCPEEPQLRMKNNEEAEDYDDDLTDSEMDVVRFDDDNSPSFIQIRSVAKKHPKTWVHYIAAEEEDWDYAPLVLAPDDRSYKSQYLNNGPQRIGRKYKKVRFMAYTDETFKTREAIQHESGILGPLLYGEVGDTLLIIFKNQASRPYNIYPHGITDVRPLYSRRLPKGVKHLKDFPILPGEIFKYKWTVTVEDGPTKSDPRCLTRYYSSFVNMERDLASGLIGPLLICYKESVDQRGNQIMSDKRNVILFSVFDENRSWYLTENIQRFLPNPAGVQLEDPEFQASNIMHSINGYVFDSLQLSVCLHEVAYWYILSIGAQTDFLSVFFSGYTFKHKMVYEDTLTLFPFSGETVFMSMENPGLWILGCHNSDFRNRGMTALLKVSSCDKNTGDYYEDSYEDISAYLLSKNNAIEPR
Coagulation factor VIII, sequence (P00451 1668-2351 limits assumed): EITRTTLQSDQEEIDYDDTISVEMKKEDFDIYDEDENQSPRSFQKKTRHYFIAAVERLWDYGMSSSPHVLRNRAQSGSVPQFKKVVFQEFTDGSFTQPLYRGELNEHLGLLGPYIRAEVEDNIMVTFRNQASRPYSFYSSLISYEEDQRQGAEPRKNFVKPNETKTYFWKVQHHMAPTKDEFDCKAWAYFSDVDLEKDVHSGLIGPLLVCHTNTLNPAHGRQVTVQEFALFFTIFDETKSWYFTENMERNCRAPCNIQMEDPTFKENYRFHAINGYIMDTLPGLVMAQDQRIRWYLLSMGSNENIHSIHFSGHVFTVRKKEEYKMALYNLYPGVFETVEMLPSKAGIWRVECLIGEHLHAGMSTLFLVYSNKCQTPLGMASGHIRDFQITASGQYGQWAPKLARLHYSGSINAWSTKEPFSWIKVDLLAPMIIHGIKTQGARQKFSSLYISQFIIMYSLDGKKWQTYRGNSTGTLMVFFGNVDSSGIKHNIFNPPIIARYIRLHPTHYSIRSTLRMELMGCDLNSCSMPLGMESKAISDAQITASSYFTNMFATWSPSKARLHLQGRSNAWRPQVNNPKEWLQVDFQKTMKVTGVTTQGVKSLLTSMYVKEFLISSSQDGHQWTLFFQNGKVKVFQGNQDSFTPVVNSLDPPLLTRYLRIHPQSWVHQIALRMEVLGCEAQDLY

Coagulation factor X (Homo sapiens), sequence (P00742 41-179 limits assumed): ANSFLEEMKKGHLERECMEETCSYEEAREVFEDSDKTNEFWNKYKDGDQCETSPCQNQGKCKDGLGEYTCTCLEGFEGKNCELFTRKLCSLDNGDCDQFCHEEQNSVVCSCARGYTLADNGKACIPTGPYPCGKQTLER
Coagulation factor X (Homo sapiens), sequence (P00742 235-488 limits assumed): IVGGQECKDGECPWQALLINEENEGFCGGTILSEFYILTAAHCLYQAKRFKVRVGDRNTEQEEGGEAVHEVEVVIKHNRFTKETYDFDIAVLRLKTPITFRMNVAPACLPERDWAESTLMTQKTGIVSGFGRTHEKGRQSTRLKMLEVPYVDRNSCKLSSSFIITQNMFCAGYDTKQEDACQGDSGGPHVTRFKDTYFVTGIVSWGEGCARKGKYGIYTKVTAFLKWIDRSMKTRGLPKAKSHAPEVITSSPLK
T1 sequence (P12259 29-737 limits assumed): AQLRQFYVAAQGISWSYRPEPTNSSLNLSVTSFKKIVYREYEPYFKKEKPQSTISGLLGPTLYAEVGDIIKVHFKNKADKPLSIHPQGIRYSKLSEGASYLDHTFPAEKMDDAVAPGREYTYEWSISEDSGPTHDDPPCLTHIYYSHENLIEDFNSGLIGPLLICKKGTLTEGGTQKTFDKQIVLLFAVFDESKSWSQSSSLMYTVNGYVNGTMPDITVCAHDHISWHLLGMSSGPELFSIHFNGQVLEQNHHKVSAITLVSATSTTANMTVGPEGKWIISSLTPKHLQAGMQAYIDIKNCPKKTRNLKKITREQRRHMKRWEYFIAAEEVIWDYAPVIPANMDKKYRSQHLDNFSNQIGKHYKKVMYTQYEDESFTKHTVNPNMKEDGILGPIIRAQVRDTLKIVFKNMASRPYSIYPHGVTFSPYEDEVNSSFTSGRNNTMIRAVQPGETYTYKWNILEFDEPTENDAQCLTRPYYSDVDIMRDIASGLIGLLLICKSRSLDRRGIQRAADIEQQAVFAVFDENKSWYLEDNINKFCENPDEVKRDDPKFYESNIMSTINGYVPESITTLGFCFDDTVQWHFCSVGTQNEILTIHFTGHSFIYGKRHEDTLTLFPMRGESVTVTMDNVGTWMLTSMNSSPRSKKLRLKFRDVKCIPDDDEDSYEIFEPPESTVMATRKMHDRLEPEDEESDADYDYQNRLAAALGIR
T1 sequence (P12259 1574-2224 limits assumed): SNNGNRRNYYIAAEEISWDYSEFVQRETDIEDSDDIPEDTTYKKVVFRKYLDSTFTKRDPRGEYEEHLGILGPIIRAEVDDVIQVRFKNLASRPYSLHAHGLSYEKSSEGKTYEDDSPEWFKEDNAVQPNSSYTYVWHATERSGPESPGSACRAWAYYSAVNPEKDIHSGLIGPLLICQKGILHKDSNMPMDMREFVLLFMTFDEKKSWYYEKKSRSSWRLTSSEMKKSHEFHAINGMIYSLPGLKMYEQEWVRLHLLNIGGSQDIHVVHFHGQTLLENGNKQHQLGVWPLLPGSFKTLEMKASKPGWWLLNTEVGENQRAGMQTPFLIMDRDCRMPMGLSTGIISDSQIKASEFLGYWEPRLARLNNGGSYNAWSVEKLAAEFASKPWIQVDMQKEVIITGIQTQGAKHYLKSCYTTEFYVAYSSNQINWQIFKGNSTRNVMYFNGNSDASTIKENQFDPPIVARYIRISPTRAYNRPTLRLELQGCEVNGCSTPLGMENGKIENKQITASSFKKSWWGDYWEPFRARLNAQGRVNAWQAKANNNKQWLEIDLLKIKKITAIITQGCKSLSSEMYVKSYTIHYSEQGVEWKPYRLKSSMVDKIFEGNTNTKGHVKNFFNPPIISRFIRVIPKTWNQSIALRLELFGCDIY

| SMILES | Activity [1] | inhibition (Coagulation factor V [2]) [%] | IC50 (Coagulation factor V [3]) [µM] | Activity [4] | IC50 (Coagulation factor V [5]) [µM] | Activity (Coagulation factor V [6]) [%] | IC50 (Coagulation factor V [7]) [µM] | Activity [8] | IC50 (Coagulation factor VIII) [µM] |
| --- | --- | --- | --- | --- | --- | --- | --- | --- | --- |
| CC(C)NC[C@@H](O)Cn1c2c(c3ccccc31)CCc1c-2cnn1-c1ccccc1 | inactive | > 99 | 3.8 | inactive | – | – | – | – | – |
| CCOc1cc(/C=C2/NC(=O)N(Cc3ccccc3F)C2=O)ccc1OCc1ccc(C(=O)O)cc1 | inactive | > 99 | 18.6 | inactive | 2.5 | 25 | 3.51 | inactive | – |
| CC1=NN(c2cccc(C(=O)O)c2)C(=O)/C1=C\c1ccc(-c2ccc([N+](=O)[O-])cc2)o1 | inactive | > 99 | 9.19 | inactive | 8.56 | – | 6.71 | inactive | – |
| N=c1n(CCN2CCCCC2)c2ccccc2n1CC(O)COc1ccc(Cl)cc1Cl (single isomer, unassigned) | – | > 99 | 32.4 | inactive | 15.7 | – | 14 | inactive | 7.8 |
| Cc1cc(-c2ccc(/C=C3/C(=O)NN(c4cccc(Cl)c4)C3=O)o2)c([N+](=O)[O-])cc1C | inactive | > 99 | 8.95 | inactive | 8.55 | – | 7.4 | inactive | – |
| O=C1NC(=O)N(c2ccccc2F)C(=O)/C1=C\c1cc(Cl)ccc1OCc1ccc([N+](=O)[O-])cc1 | – | > 99 | 38 | inactive | 14.1 | – | 21.9 | inactive | 8.9 |
| CC1=NN(c2ccc(Br)cc2)C(=O)/C1=C/c1ccc(-c2cccc(C(=O)O)c2)o1 | inactive | > 99 | 1.81 | inactive | – | – | – | – | – |
| O=C(COc1ccc(Cl)cc1Cl)Nc1ccc(C(=O)Nc2ccccc2C(=O)O)cc1 | inactive | > 99 | 40.6 | inactive | 14.1 | – | 16.4 | inactive | – |
| COc1cc([N+](=O)[O-])ccc1-c1ccc(/C=C2\C(=O)NC(=O)N(c3ccc4c(c3)OCO4)C2=O)o1 | inactive | > 99 | 62.9 | inactive | 4.8 | – | 5.53 | inactive | – |

Reference: ChEMBL document CHEMBL1147047, “Design of protein membrane interaction inhibitors by virtual ligand screening, proof of concept with the C2 domain of factor V” (Proc Natl Acad Sci U S A, 2007)
